Reference: PubChem BioAssay (NCI)
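Following 48 hours of exposure in 96-well plates, responses at five concentrations were used to interpolate endpoints linearly. GI50: concentration for 50% inhibition of growth. At the TGI there is no net growth.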 Activity calls are given as the source filed them. Rule as the data show it: active = GI50 below about 0.43 µM; inactive = the rest.

Legend:
Assay in all cases: NCI anticancer screen, dose series, 48 h
UO-31 renal = test system: UO-31 renal
HS 578T breast = test system: HS 578T breast
SF-268 CNS = test system: SF-268 CNS
MDA-MB-435 = test system: MDA-MB-435
OVCAR-8 ovarian = test system: OVCAR-8 ovarian
SNB-75 CNS = test system: SNB-75 CNS
NCI-H460 lung = test system: NCI-H460 lung
IGROV1 ovarian = test system: IGROV1 ovarian
SK-OV-3 ovarian = test system: SK-OV-3 ovarian
SK-MEL-28 melanoma = test system: SK-MEL-28 melanoma
NCI-H226 lung = test system: NCI-H226 lung
OVCAR-5 ovarian = test system: OVCAR-5 ovarian
MDA-MB-231 breast = test system: MDA-MB-231 breast
HT29 colon = test system: HT29 colon
CAKI-1 renal = test system: CAKI-1 renal
COLO 205 colon = test system: COLO 205 colon
HCT-116 colon = test system: HCT-116 colon
HCC-2998 colon = test system: HCC-2998 colon
HL-60(TB) leukemia = test system: HL-60(TB) leukemia
HCT-15 colon = test system: HCT-15 colon
ACHN renal = test system: ACHN renal
OVCAR-3 ovarian = test system: OVCAR-3 ovarian
A498 renal = test system: A498 renal
NCI/ADR-RES ovarian = test system: NCI/ADR-RES ovarian
SW-620 colon = test system: SW-620 colon
K-562 leukemia = test system: K-562 leukemia
SK-MEL-2 melanoma = test system: SK-MEL-2 melanoma
A549 NSCLC = test system: A549 NSCLC
SR leukemia = test system: SR leukemia
NCI-H522 lung = test system: NCI-H522 lung
SN12C renal = test system: SN12C renal
UACC-62 melanoma = test system: UACC-62 melanoma
T-47D breast = test system: T-47D breast
HOP-62 NSCLC = test system: HOP-62 NSCLC
EKVX NSCLC = test system: EKVX NSCLC
UACC-257 melanoma = test system: UACC-257 melanoma
OVCAR-4 ovarian = test system: OVCAR-4 ovarian
SK-MEL-5 melanoma = test system: SK-MEL-5 melanoma
MOLT-4 leukemia = test system: MOLT-4 leukemia
MCF7 breast = test system: MCF7 breast
DU-145 prostate = test system: DU-145 prostate
RXF 393 renal = test system: RXF 393 renal
NCI-H23 lung = test system: NCI-H23 lung
MALME-3M melanoma = test system: MALME-3M melanoma
PC-3 prostate = test system: PC-3 prostate
LOX IMVI melanoma = test system: LOX IMVI melanoma
M14 melanoma = test system: M14 melanoma
SF-295 CNS = test system: SF-295 CNS
BT-549 breast = test system: BT-549 breast
U251 CNS = test system: U251 CNS
TK-10 renal = test system: TK-10 renal
786-0 renal = test system: 786-0 renal
CCRF-CEM leukemia = test system: CCRF-CEM leukemia
SNB-19 CNS = test system: SNB-19 CNS
KM12 colon = test system: KM12 colon
SF-539 CNS = test system: SF-539 CNS
RPMI-8226 leukemia = test system: RPMI-8226 leukemia

SMILES: Clc1ccc(CN2COc3c(ccc4cccnc34)C2)cc1Cl
- GI50 (UO-31 renal): 400 nM
- TGI (UO-31 renal): 10.5 µM
- GI50 (HS 578T breast): 1960 nM
- TGI (HS 578T breast): 10.1 µM
- GI50 (SF-268 CNS): 1320 nM
- TGI (SF-268 CNS): 12.1 µM
- GI50 (MDA-MB-435): 1960 nM
- TGI (MDA-MB-435): 9.18 µM
- GI50 (OVCAR-8 ovarian): 730 nM
- TGI (OVCAR-8 ovarian): 10.2 µM
- GI50 (SNB-75 CNS): 2360 nM
- TGI (SNB-75 CNS): 13.4 µM
- GI50 (NCI-H460 lung): 532 nM
- TGI (NCI-H460 lung): 2520 nM
- GI50 (IGROV1 ovarian): 1050 nM
- TGI (IGROV1 ovarian): 3.61 µM
- GI50 (SK-OV-3 ovarian): 1340 nM
- TGI (SK-OV-3 ovarian): 13.1 µM
- GI50 (SK-MEL-28 melanoma): 1470 nM
- TGI (SK-MEL-28 melanoma): 14.2 µM
- GI50 (NCI-H226 lung): 1280 nM
- TGI (NCI-H226 lung): 7.12 µM
- GI50 (OVCAR-5 ovarian): 1790 nM
- TGI (OVCAR-5 ovarian): 15.2 µM
- GI50 (MDA-MB-231 breast): 1320 nM
- TGI (MDA-MB-231 breast): 9.92 µM
- GI50 (HT29 colon): 4.05 µM
- TGI (HT29 colon): 15.2 µM
- GI50 (CAKI-1 renal): 3.28 µM
- TGI (CAKI-1 renal): 13.2 µM
- GI50 (COLO 205 colon): 3.18 µM
- TGI (COLO 205 colon): 11.9 µM
- GI50 (HCT-116 colon): 712 nM
- TGI (HCT-116 colon): 2780 nM
- GI50 (HCC-2998 colon): 2280 nM
- TGI (HCC-2998 colon): 8.77 µM
- GI50 (HL-60(TB) leukemia): 297 nM
- TGI (HL-60(TB) leukemia): 1300 nM
- GI50 (HCT-15 colon): 483 nM
- TGI (HCT-15 colon): 15.5 µM
- GI50 (ACHN renal): 525 nM
- TGI (ACHN renal): 10.6 µM
- GI50 (OVCAR-3 ovarian): 468 nM
- TGI (OVCAR-3 ovarian): 12.1 µM
- GI50 (A498 renal): 0.00172 mM
- TGI (A498 renal): 11.8 µM
- GI50 (NCI/ADR-RES ovarian): 394 nM
- TGI (NCI/ADR-RES ovarian): 2150 nM
- GI50 (SW-620 colon): 1280 nM
- TGI (SW-620 colon): 5.39 µM
- GI50 (K-562 leukemia): 895 nM
- TGI (K-562 leukemia): 2680 nM
- GI50 (SK-MEL-2 melanoma): 2150 nM
- TGI (SK-MEL-2 melanoma): 7.47 µM
- GI50 (A549 NSCLC): 1640 nM
- TGI (A549 NSCLC): 12.9 µM
- GI50 (SR leukemia): 354 nM
- TGI (SR leukemia): 1410 nM
- GI50 (NCI-H522 lung): 1100 nM
- TGI (NCI-H522 lung): 2610 nM
- GI50 (SN12C renal): 2040 nM
- TGI (SN12C renal): 13.8 µM
- GI50 (UACC-62 melanoma): 584 nM
- TGI (UACC-62 melanoma): 2410 nM
- GI50 (T-47D breast): 1680 nM
- TGI (T-47D breast): 11.3 µM
- GI50 (HOP-62 NSCLC): 1490 nM
- TGI (HOP-62 NSCLC): 10.9 µM
- GI50 (EKVX NSCLC): 1310 nM
- TGI (EKVX NSCLC): 15.2 µM
- GI50 (UACC-257 melanoma): 2530 nM
- TGI (UACC-257 melanoma): 7.89 µM
- GI50 (OVCAR-4 ovarian): 531 nM
- TGI (OVCAR-4 ovarian): 12.9 µM
- GI50 (SK-MEL-5 melanoma): 971 nM
- TGI (SK-MEL-5 melanoma): 2900 nM
- GI50 (MOLT-4 leukemia): 1550 nM
- TGI (MOLT-4 leukemia): 4.89 µM
- GI50 (MCF7 breast): 697 nM
- TGI (MCF7 breast): 3.59 µM
- GI50 (DU-145 prostate): 1770 nM
- TGI (DU-145 prostate): 14.8 µM
- GI50 (RXF 393 renal): 1050 nM
- TGI (RXF 393 renal): 4.1 µM
- GI50 (NCI-H23 lung): 2560 nM
- TGI (NCI-H23 lung): 14.9 µM
- GI50 (MALME-3M melanoma): 2230 nM
- TGI (MALME-3M melanoma): 9.16 µM
- GI50 (PC-3 prostate): 798 nM
- TGI (PC-3 prostate): 11.5 µM
- GI50 (LOX IMVI melanoma): 1010 nM
- TGI (LOX IMVI melanoma): 2700 nM
- GI50 (M14 melanoma): 1260 nM
- TGI (M14 melanoma): 4.74 µM
- GI50 (SF-295 CNS): 2350 nM
- TGI (SF-295 CNS): 12.6 µM
- GI50 (BT-549 breast): 2460 nM
- TGI (BT-549 breast): 17.5 µM
- GI50 (U251 CNS): 966 nM
- TGI (U251 CNS): 13.2 µM
- GI50 (TK-10 renal): 3.35 µM
- TGI (TK-10 renal): 17.9 µM
- GI50 (786-0 renal): 1990 nM
- TGI (786-0 renal): 5.85 µM
- GI50 (CCRF-CEM leukemia): 578 nM
- TGI (CCRF-CEM leukemia): 3.69 µM
- GI50 (SNB-19 CNS): 1980 nM
- TGI (SNB-19 CNS): 14.3 µM
- GI50 (KM12 colon): 1200 nM
- TGI (KM12 colon): 4.49 µM
- GI50 (SF-539 CNS): 1280 nM
- TGI (SF-539 CNS): 3.72 µM

SMILES: CS(C)(=O)=O
- outcome (UO-31 renal): inactive
- outcome (HS 578T breast): inactive
- outcome (SF-268 CNS): inactive
- outcome (MDA-MB-435): inactive
- outcome (OVCAR-8 ovarian): inactive
- outcome (SNB-75 CNS): inactive
- outcome (NCI-H460 lung): inactive
- outcome (IGROV1 ovarian): inactive
- outcome (SK-OV-3 ovarian): inactive
- outcome (SK-MEL-28 melanoma): inactive
- outcome (NCI-H226 lung): inactive
- outcome (OVCAR-5 ovarian): inactive
- outcome (MDA-MB-231 breast): inactive
- outcome (HT29 colon): inactive
- outcome (CAKI-1 renal): inactive
- outcome (COLO 205 colon): inactive
- outcome (HCT-116 colon): inactive
- outcome (HL-60(TB) leukemia): inactive
- outcome (HCT-15 colon): inactive
- outcome (ACHN renal): inactive
- outcome (OVCAR-3 ovarian): inactive
- GI50 (A498 renal): 42 mM
- outcome (NCI/ADR-RES ovarian): inactive
- outcome (SW-620 colon): inactive
- outcome (K-562 leukemia): inactive
- outcome (SK-MEL-2 melanoma): inactive
- outcome (A549 NSCLC): inactive
- outcome (SR leukemia): inactive
- outcome (NCI-H522 lung): inactive
- outcome (SN12C renal): inactive
- outcome (UACC-62 melanoma): inactive
- outcome (T-47D breast): inactive
- outcome (HOP-62 NSCLC): inactive
- outcome (EKVX NSCLC): inactive
- outcome (UACC-257 melanoma): inactive
- outcome (OVCAR-4 ovarian): inactive
- outcome (SK-MEL-5 melanoma): inactive
- outcome (MOLT-4 leukemia): inactive
- outcome (MCF7 breast): inactive
- outcome (DU-145 prostate): inactive
- outcome (RXF 393 renal): inactive
- outcome (NCI-H23 lung): inactive
- outcome (MALME-3M melanoma): inactive
- outcome (PC-3 prostate): inactive
- outcome (LOX IMVI melanoma): inactive
- outcome (M14 melanoma): inactive
- outcome (RPMI-8226 leukemia): inactive
- outcome (SF-295 CNS): inactive
- outcome (BT-549 breast): inactive
- outcome (U251 CNS): inactive
- outcome (TK-10 renal): inactive
- outcome (786-0 renal): inactive
- outcome (CCRF-CEM leukemia): inactive
- outcome (SNB-19 CNS): inactive
- outcome (KM12 colon): inactive
- outcome (SF-539 CNS): inactive
